Molecular target: T1, Thymidylate kinase (Mycobacterium tuberculosis, UniProt P9WKE1)
T1 sequence (P9WKE1 whole entry): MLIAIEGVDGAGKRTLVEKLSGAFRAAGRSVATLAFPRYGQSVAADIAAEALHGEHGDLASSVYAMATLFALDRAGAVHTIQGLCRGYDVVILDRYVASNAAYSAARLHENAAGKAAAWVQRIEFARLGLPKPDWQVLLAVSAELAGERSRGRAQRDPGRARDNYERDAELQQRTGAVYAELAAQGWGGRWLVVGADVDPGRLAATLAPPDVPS
Experiment: Compound was tested for binding affinity against Mycobacterium tuberculosis thymidine monophosphate kinase

Point of comparison: `Cc1cn([C@@H]2O[C@H](COP(=O)(O)O)[C@@H](N)[C@H]2O)c(=O)[nH]c1=O`, Ki 27 µM. Against it:
- Cc1cn([C@@H]2O[C@H](COP(=O)(O)O)[C@@H](O)[C@H]2N)c(=O)[nH]c1=O — 2-fold higher, 55 µM
- Cc1cn([C@H]2C[C@H](N)[C@@H](COP(=O)(O)O)O2)c(=O)[nH]c1=O — 8.7-fold higher, 235 µM
- Cc1cn([C@@H]2O[C@H](COP(=O)(O)O)[C@@H](O)[C@H]2F)c(=O)[nH]c1=O — 1.6-fold higher, 43 µM
- Cc1cn([C@@H]2O[C@H](COP(=O)(O)O)[C@@H](O)[C@H]2Cl)c(=O)[nH]c1=O — within 1.5-fold, 19 µM
- Cc1cn([C@H]2C[C@H](N=[N+]=[N-])[C@@H](COP(=O)(O)O)O2)c(=O)[nH]c1=O [AZIDOTHYMIDINE MONOPHOSPHATE] — 2.7-fold lower, 10 µM

— ChEMBL document CHEMBL1135342, “Synthesis and evaluation of thymidine-5'-O-monophosphate analogues as inhibitors of Mycobacterium tuberculosis thymidylate kinase” (Bioorg Med Chem Lett, 2002)
